Measured values reported in ChEMBL document CHEMBL1201862, “PubChem BioAssay data set” (2004).
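Cells were grown in 96-well plates and exposed to each compound for 48 hours at five concentrations; endpoints were interpolated linearly between bracketing concentrations, or set to the highest concentration if not reached. Abbreviation: GI50, concentration required for 50% inhibition of growth.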 Active and inactive are the calls of the source. No stated cut-off is given here; in the data, active = GI50 up to about 1.1 µM and inactive = higher.

Key:
Assay in all cases: inhibition of tumour cell growth, NCI panel, 48 h
U-251 = test system: U-251
NCI-H226 = test system: NCI-H226
M14 = test system: M14
EKVX = test system: EKVX
DMS-114 = test system: DMS-114
COLO 205 = test system: COLO 205
HCT-15 = test system: HCT-15
786-0 = test system: 786-0
HCC 2998 = test system: HCC 2998
KM12 = test system: KM12
SNB-19 = test system: SNB-19
SF-268 = test system: SF-268
IGROV-1 = test system: IGROV-1
SK-MEL-28 = test system: SK-MEL-28
SN12C = test system: SN12C
RXF 393 = test system: RXF 393
HOP-62 = test system: HOP-62
HOP-18 = test system: HOP-18
HOP-92 = test system: HOP-92
SK-OV-3 = test system: SK-OV-3
SNB-78 = test system: SNB-78
A549 = test system: A549
UO-31 = test system: UO-31
MOLT-4 = test system: MOLT-4
UACC-62 = test system: UACC-62
TK-10 = test system: TK-10
A498 = test system: A498
LXFL 529 = test system: LXFL 529
LOX IMVI = test system: LOX IMVI
SW-620 = test system: SW-620
M19-MEL = test system: M19-MEL
UACC-257 = test system: UACC-257
NCI-H460 = test system: NCI-H460
Malme-3M = test system: Malme-3M
SF-295 = test system: SF-295
ACHN = test system: ACHN
DMS-273 = test system: DMS-273
SF-539 = test system: SF-539
OVCAR-8 = test system: OVCAR-8
HT-29 = test system: HT-29
OVCAR-4 = test system: OVCAR-4
SNB-75 = test system: SNB-75
OVCAR-3 = test system: OVCAR-3
CAKI-1 = test system: CAKI-1
HCT-116 = test system: HCT-116
SR = test system: SR
OVCAR-5 = test system: OVCAR-5
KM-20L2 = test system: KM-20L2
SK-MEL-5 = test system: SK-MEL-5
SK-MEL-2 = test system: SK-MEL-2
NCI-H23 = test system: NCI-H23
DLD-1 = test system: DLD-1
CCRF-CEM = test system: CCRF-CEM
XF498 = test system: XF498
NCI/ADR-RES = test system: NCI/ADR-RES
MCF7 = test system: MCF7
NCI-H522 = test system: NCI-H522
HL-60 = test system: HL-60
K562 = test system: K562
RPMI-8226 = test system: RPMI-8226

Structure (SMILES): CN(C)CC1CCCCCCCCCCCCC(CN(C)C)C1=O (stereo unspecified)
- GI50 (U-251): 14.3 µM (inactive)
- GI50 (NCI-H226): 11 µM (inactive)
- GI50 (M14): 13.2 µM (inactive)
- GI50 (EKVX): 22.6 µM (inactive)
- GI50 (DMS-114): 16.9 µM (inactive)
- GI50 (COLO 205): 14 µM (inactive)
- GI50 (HCT-15): 18.7 µM
- GI50 (786-0): 10.1 µM (inactive)
- GI50 (HCC 2998): 10.2 µM (inactive)
- GI50 (KM12): 11.1 µM (inactive)
- GI50 (SNB-19): 17.5 µM (inactive)
- GI50 (SF-268): 12.7 µM (inactive)
- GI50 (IGROV-1): 17.3 µM (inactive)
- GI50 (SK-MEL-28): 13.6 µM (inactive)
- GI50 (SN12C): 15.2 µM (inactive)
- GI50 (RXF 393): 11.2 µM (inactive)
- GI50 (HOP-62): 16.4 µM (inactive)
- GI50 (HOP-18): 16.2 µM (inactive)
- GI50 (HOP-92): 13.2 µM (inactive)
- GI50 (SK-OV-3): 17.7 µM (inactive)
- GI50 (SNB-78): 13.5 µM (inactive)
- GI50 (A549): 15.5 µM (inactive)
- GI50 (UO-31): 13.7 µM (inactive)
- GI50 (MOLT-4): 2.09 µM (inactive)
- GI50 (UACC-62): 13.3 µM (inactive)
- GI50 (TK-10): 14.7 µM (inactive)
- GI50 (A498): 18.7 µM (inactive)
- GI50 (LXFL 529): 14.9 µM (inactive)
- GI50 (LOX IMVI): 8.43 µM (inactive)
- GI50 (SW-620): 7.64 µM (inactive)
- GI50 (M19-MEL): 12.6 µM (inactive)
- GI50 (UACC-257): 16.3 µM (inactive)
- GI50 (NCI-H460): 13.7 µM (inactive)
- GI50 (Malme-3M): 15.7 µM (inactive)
- GI50 (SF-295): 15.8 µM (inactive)
- GI50 (ACHN): 16.2 µM (inactive)
- GI50 (DMS-273): 10.4 µM (inactive)
- GI50 (SF-539): 15.2 µM (inactive)
- GI50 (OVCAR-8): 10.3 µM (inactive)
- GI50 (HT-29): 5.66 µM (inactive)
- GI50 (OVCAR-4): 15.7 µM (inactive)
- GI50 (SNB-75): 11.9 µM (inactive)
- GI50 (OVCAR-3): 16.8 µM (inactive)
- GI50 (CAKI-1): 13.3 µM (inactive)
- GI50 (HCT-116): 4.54 µM (inactive)
- GI50 (SR): 1.46 µM (inactive)
- GI50 (OVCAR-5): 16.7 µM (inactive)
- GI50 (KM-20L2): 11.9 µM (inactive)
- GI50 (SK-MEL-5): 14.5 µM (inactive)
- GI50 (SK-MEL-2): 12.4 µM (inactive)
- GI50 (NCI-H23): 17.7 µM (inactive)
- GI50 (DLD-1): 15.6 µM (inactive)

Structure (SMILES): COc1cc(-c2ccc(/N=N/c3c(S(=O)(=O)O)cc4cc(S(=O)(=O)O)cc(N)c4c3O)c(OC)c2)ccc1/N=N/c1c(S(=O)(=O)O)cc2cc(S(=O)(=O)O)cc(N)c2c1O
- GI50 (U-251): > 100 µM (inactive)
- GI50 (NCI-H226): > 62.1 µM (inactive)
- GI50 (EKVX): 88.5 µM (inactive)
- GI50 (DMS-114): 73.1 µM (inactive)
- GI50 (COLO 205): > 100 µM (inactive)
- GI50 (HCT-15): 59.6 µM
- GI50 (HCC 2998): > 100 µM (inactive)
- GI50 (KM12): > 86.1 µM (inactive)
- GI50 (SNB-19): > 100 µM (inactive)
- GI50 (SF-268): > 100 µM (inactive)
- GI50 (IGROV-1): > 100 µM (inactive)
- GI50 (SK-MEL-28): > 100 µM (inactive)
- GI50 (SN12C): > 100 µM (inactive)
- GI50 (RXF 393): > 100 µM (inactive)
- GI50 (HOP-62): > 100 µM (inactive)
- GI50 (HOP-92): 34 µM (inactive)
- GI50 (CCRF-CEM): > 88.3 µM (inactive)
- GI50 (SK-OV-3): > 100 µM (inactive)
- GI50 (XF498): 6.89 µM (inactive)
- GI50 (SNB-78): 78.3 µM (inactive)
- GI50 (NCI/ADR-RES): > 100 µM (inactive)
- GI50 (A549): > 77.4 µM (inactive)
- GI50 (UO-31): > 80.4 µM (inactive)
- GI50 (MOLT-4): > 82.6 µM (inactive)
- GI50 (A498): > 100 µM (inactive)
- GI50 (MCF7): > 100 µM (inactive)
- GI50 (LOX IMVI): > 90.6 µM (inactive)
- GI50 (SW-620): 73.5 µM (inactive)
- GI50 (M19-MEL): > 100 µM (inactive)
- GI50 (UACC-257): > 100 µM (inactive)
- GI50 (NCI-H460): > 100 µM (inactive)
- GI50 (Malme-3M): > 100 µM (inactive)
- GI50 (SF-295): > 100 µM (inactive)
- GI50 (DMS-273): > 74.6 µM (inactive)
- GI50 (SF-539): > 100 µM (inactive)
- GI50 (OVCAR-8): > 100 µM (inactive)
- GI50 (HT-29): > 62.1 µM (inactive)
- GI50 (NCI-H522): > 100 µM (inactive)
- GI50 (OVCAR-4): > 57 µM (inactive)
- GI50 (HL-60): 29.9 µM (inactive)
- GI50 (K562): > 78.7 µM (inactive)
- GI50 (SNB-75): 37.4 µM (inactive)
- GI50 (OVCAR-3): > 62.8 µM (inactive)
- GI50 (HCT-116): > 100 µM (inactive)
- GI50 (OVCAR-5): > 100 µM (inactive)
- GI50 (RPMI-8226): > 100 µM (inactive)
- GI50 (KM-20L2): 35 µM (inactive)
- GI50 (SK-MEL-5): > 100 µM (inactive)
- GI50 (SK-MEL-2): > 100 µM (inactive)
- GI50 (NCI-H23): > 100 µM (inactive)
- GI50 (DLD-1): > 94 µM (inactive)

Structure (SMILES): Cc1ccc(S(=O)(=O)NC(=O)C2(Br)S(=O)(=O)OCCOS2(=O)=O)cc1
- GI50 (U-251): > 100 µM (inactive)
- GI50 (NCI-H226): > 100 µM (inactive)
- GI50 (M14): > 100 µM (inactive)
- GI50 (EKVX): > 100 µM (inactive)
- GI50 (DMS-114): > 100 µM (inactive)
- GI50 (COLO 205): > 100 µM (inactive)
- GI50 (HCT-15): > 100 µM
- GI50 (786-0): > 100 µM (inactive)
- GI50 (HCC 2998): > 100 µM (inactive)
- GI50 (SNB-19): > 100 µM (inactive)
- GI50 (SF-268): > 100 µM (inactive)
- GI50 (IGROV-1): > 100 µM (inactive)
- GI50 (SK-MEL-28): > 100 µM (inactive)
- GI50 (SN12C): > 100 µM (inactive)
- GI50 (RXF 393): > 100 µM (inactive)
- GI50 (HOP-62): > 100 µM (inactive)
- GI50 (HOP-92): > 100 µM (inactive)
- GI50 (CCRF-CEM): > 100 µM (inactive)
- GI50 (SK-OV-3): > 100 µM (inactive)
- GI50 (XF498): > 100 µM (inactive)
- GI50 (SNB-78): > 100 µM (inactive)
- GI50 (A549): > 100 µM (inactive)
- GI50 (UO-31): > 100 µM (inactive)
- GI50 (MOLT-4): > 100 µM (inactive)
- GI50 (UACC-62): > 100 µM (inactive)
- GI50 (TK-10): > 100 µM (inactive)
- GI50 (A498): > 100 µM (inactive)
- GI50 (LXFL 529): > 100 µM (inactive)
- GI50 (LOX IMVI): > 100 µM (inactive)
- GI50 (M19-MEL): > 100 µM (inactive)
- GI50 (UACC-257): > 100 µM (inactive)
- GI50 (NCI-H460): > 100 µM (inactive)
- GI50 (Malme-3M): > 100 µM (inactive)
- GI50 (ACHN): > 100 µM (inactive)
- GI50 (DMS-273): > 100 µM (inactive)
- GI50 (SF-539): > 100 µM (inactive)
- GI50 (OVCAR-8): > 100 µM (inactive)
- GI50 (HT-29): > 100 µM (inactive)
- GI50 (NCI-H522): > 100 µM (inactive)
- GI50 (OVCAR-4): > 100 µM (inactive)
- GI50 (HL-60): > 100 µM (inactive)
- GI50 (K562): > 100 µM (inactive)
- GI50 (SNB-75): > 100 µM (inactive)
- GI50 (OVCAR-3): > 100 µM (inactive)
- GI50 (HCT-116): > 100 µM (inactive)
- GI50 (SR): > 100 µM (inactive)
- GI50 (OVCAR-5): > 100 µM (inactive)
- GI50 (RPMI-8226): > 100 µM (inactive)
- GI50 (KM-20L2): > 100 µM (inactive)
- GI50 (SK-MEL-5): > 100 µM (inactive)
- GI50 (SK-MEL-2): > 100 µM (inactive)
- GI50 (NCI-H23): > 100 µM (inactive)
- GI50 (DLD-1): > 100 µM (inactive)
